From publication PMC10095864, “Targeting HIV-1 Reverse Transcriptase Using a Fragment-Based Approach” (Molecules, 2023)
Like-named read-outs stand apart in the source and are kept apart here.

Assays:
recombinant WT HIV-1 RT = target: T1, recombinant WT HIV-1 RT (Human immunodeficiency virus type 1 group M subtype B, UniProt P03367); assay: biochemical; settings: for IC50: RT Inhibition—IC50 ± SEM, WT RT DDDP activity; for fold improvement on parent compound B-1: IC50 vs B-1 IC50 >1000 μM in the radioactive RT assay; for Ligand efficiency (LE): binding to WT RT, LE = −1.4(logIC50)/N
T1 construct: The p66/p51 HIV-1 RT heterodimer engineered with a N-terminal histidine tag; His tag (histidine tag) (N); made in house; host or cells: Escherichia coli strain M15 (vector pRT6H-PR)
Description: (§1) The inhibitory activity of all compounds was evaluated in vitro in assays that measure the DNA-dependent DNA polymerase (DDDP) activity of HIV-1 RT. Compounds were tested against recombinant WT and drug-resistant HIV-1 RT mutants (K103N, Y181C or K103N/Y181C). […] The IC50 value of nevirapine was determined in parallel to control for the performance of the assay. […] These RT mutations either reduce the rate of entry of NNRTIs to the binding pocket (K103N) or remove aromatic interactions that favor binding (Y181C). Initially, compound IC50 values were determined in an assay that quantifies DDDP activity mediated by HIV-1 RT using a radiolabeled ^33PdTTP substrate and more recently using a nonradioactive PicoGreen-based spectrophotometric assay.
(§2) Recombinant HIV-1 RT: The p66/p51 HIV-1 RT heterodimer engineered with a N-terminal histidine tag was expressed from the pRT6H-PR vector (provided by Nicolas Sluis-Cremer) which is based on pRT6H-PROT [37], except that the RT coding region is derived from the infectious molecular clone xxLAI [38]. This xxLAI clone contains the HIV-1LAI backbone and is engineered with silent mutations introducing Xma I and Xba I sites in the RT coding region at nucleotide positions 40–45 and 1470 to 1475, respectively. pRT6H-PR expressing the NNRTI drug-resistant mutations K103N, Y181C and K103N/Y181C were generated by subcloning Xma I/Xba I fragments in xxLAI harboring the desired NNRTI mutations (Giacobbi NS and Sluis-Cremer 2017 AAC) into the corresponding restriction sites in the RT coding region of p6HRT-PR. RT was expressed in Escherichia coli strain M15 and purified using Ni-NTA chromatography as previously described. RT concentrations were determined spectrophotometrically at 280 nm using an extinction coefficient (e280) of 260, 450 M^−1 cm^−1.
(§3) Nevirapine was included in assays as a positive control for inhibiting RT polymerase activity. The DDDP assay was performed by first adding 25 ng of HIV-1 RT to test compound in 96-well plates followed by initiating RT polymerase activity by adding 200 ng of activated calf thymus (ACT) DNA (Sigma Aldrich), 0.2 µCi ^33P-α-dTTP (Perkin Elmer), 50 mM Tris-HCl pH 7.8 50 mM KCl, […], 50 µM dNTP mix (Bioline), 0.1 mg/mL bovine serum albumin (New England Biolabs), 0.01% IGEPAL (Sigma) and 1 mM dithiothreitol. Reactions contained 2.5% dimethyl sulfoxide (DMSO). Following incubation at 37 °C for 10 min, samples from duplicate wells were applied to Whatman DE81 ion-exchange paper (GE Healthcare); dried membranes were washed in 2X saline-sodium citrate (SSC) buffer; and incorporated counts were quantified using an FLP-2000 phosphorimager (Fujifilm) or Typhoon Trio Phosphorimager (GE Healthcare) as published. Dose–response curves were generated using PRISM GraphPad version 8 by plotting the log transformed drug concentrations against percentage inhibition of DDDP activity compared to the no drug control using non-linear regression analysis.
(§4) Non-radioactive DDDP Assay: DDDP assays were also performed using a PicoGreen based spectrophotometric assay to detect double-stranded DNA synthesized by recombinant HIV-1 RT [15]. Assays were performed as described for the […] DDDP assay except that instead of ACT, the reaction contained 40 nM of a template/primer comprising a 200 nt DNA template (5′-[…] […]-3′) annealed to a 18 nucleotide DNA primer (5′-[…]-3′), 50 mM Tris-HCl pH 7.8, 50 mM KCl, 10 mM MgCl2 and 50 µM dNTP mix.

His-tagged HIV-1 RT WT = target: T2, His-tagged HIV-1 RT WT (Human immunodeficiency virus type 1 group M subtype B, UniProt P03367); assay: Surface plasmon resonance, WT RT; assay type: binding
T2 construct: The p66/p51 HIV-1 RT heterodimer engineered with a N-terminal histidine tag; His tag (histidine tag) (N); made in house; host or cells: Escherichia coli strain M15 (vector pRT6H-PR)
Description: (§5) Compound binding to recombinant HIV-1 RT was measured by surface plasmon resonance (SPR). SPR is an optical biosensor detection method that involves passing an analyte (often a fragment) in a buffer solution over a gold surface chip with an immobilized protein (RT enzyme) and detecting the change in plasmon resonance angle which is dependent on the refractive index of the medium near the surface. As compounds bind to the target protein, the refractive index changes proportionally to the extent of binding. This can then be used to measure the association and dissociation kinetics of binding as well as the compound’s affinity for binding.
(§6) SPR assays were performed on a Biacore S200 (GE Healthcare). His-tagged RT (WT, K103N, Y181C or K103N/Y181C) was immobilized on the surface of a Biacore compatible NIHC 1500M (Xantec) chip according to manufacturer’s instructions. Following 3 injections 300 s each of 0.5 M EDTA, the chip surface was activated with a 120 s injection of 5 mM NiCl2 followed by a 2100 s injection of 130 nM RT. The final immobilization level of RT was typically 14,000–27,000 RU. SPR experiments were carried out at 25 °C using a flow rate of 50 µL/min in running buffer. The running buffer was 1.053 × (HBS pH 7.4 + 50 µM EDTA + 0.005% Tween-20). Compounds were provided as 200 mM stocks and diluted in running buffer to obtain the concentrations required for dose-response studies (0, 6.25, 12.5, 25, 50, 100 and 200 µM). Raw sensorgram data were analyzed using Biacore S200 Evaluation Software. Dose-response determinations were evaluated using a 1:1 binding model. KD values were determined by Biacore S200 Evaluation Software Version 1.0. assuming 1:1 binding. For compounds approaching saturation, Rmax was floated. For compounds with insufficient curvature, Rmax was fixed based on a control. Errors were determined as the standard error in the dose-response fit, as calculated by Biacore S200 Evaluation Software.

[1] = target: T3, HIV-1 RT K103N/Y181C mutant (Human immunodeficiency virus type 1 group M subtype B, UniProt P03367, K702N/Y780C); assay: DDDP activity assay, K103N/Y181C RT mutant; assay type: biochemical
T3 construct: The p66/p51 HIV-1 RT heterodimer engineered with a N-terminal histidine tag; His tag (histidine tag) (N); made in house; host or cells: Escherichia coli strain M15 (vector pRT6H-PR)
Description: as §1, §2, §3, §4

[2] = target: T4, His-tagged HIV-1 RT K103N (Human immunodeficiency virus type 1 group M subtype B, UniProt P03367, K702N); assay: Surface plasmon resonance, K103N RT; settings: ± standard error of dose–response fit, n = 1; NB = no binding observed; read-out: SPR—KD, K103N
T4 construct: The p66/p51 HIV-1 RT heterodimer engineered with a N-terminal histidine tag; His tag (histidine tag) (N); made in house; host or cells: Escherichia coli strain M15 (vector pRT6H-PR)
Description: as §5, §6

[3] = WT, PicoGreen or 33P radiolabeled assay, value not marked as PicoGreen, n ≥ 2
[4] = WT (PicoGreen assay), nonradioactive PicoGreen assay

CCOC(=O)c1cnn2ccc(C(=O)OC)cc12 [compound 15, 3-Ethyl 5-Methylpyrazolo[1,5-a]pyridine-3,5-dicarboxylate]
IC50 (recombinant WT HIV-1 RT; [3]): > 1000 µM

CCOC(=O)c1cnn2ccc(NC(=O)OC(C)(C)C)cc12 [compound 16, Ethyl 5-((Tert-butoxycarbonyl)amino)pyrazolo[1,5-a]pyridine-3-carboxylate]
IC50 (recombinant WT HIV-1 RT; [3]): > 1000 µM

O=C(O)c1cnn2cccc(Br)c12 [compound 17, 4-Bromopyrazolo[1,5-a]pyridine-3-carboxylic Acid]
IC50 (recombinant WT HIV-1 RT; [3]): > 1000 µM | Kd (His-tagged HIV-1 RT WT; read-out: SPR—KD, WT, ± standard error of dose–response fit, n = 1, NB = no binding observed): > 200 µM

COC(=O)c1cnn2cccc(Br)c12 [compound 18, Methyl 4-Bromopyrazolo[1,5-a]pyridine-3-carboxylate]
IC50 (recombinant WT HIV-1 RT; [4]): > 1000 µM

CCCOC(=O)c1cnn2cccc(Br)c12 [compound 19, Propyl 4-bromopyrazolo[1,5-a]pyridine-3-carboxylate]
IC50 (recombinant WT HIV-1 RT; [4]): > 1000 µM

CCNC(=O)c1cnn2cccc(Br)c12 [compound 20, 4-Bromo-N-ethylpyrazolo[1,5-a]pyridine-3-carboxamide]
IC50 (recombinant WT HIV-1 RT; [3]): > 1000 µM

O=C(NCCc1ccc(O)cc1)c1cnn2cccc(Br)c12 [compound 22, 4-Bromo-N-(4-hydroxyphenethyl)pyrazolo[1,5-a]pyridine-3-carboxamide]
IC50 (recombinant WT HIV-1 RT; [4]): 111 µM

CCOC(=O)c1cnn2cccc(C#CCN(C)C)c12 [compound 24, Ethyl 4-(3-(Dimethylamino)prop-1-yn-1-yl)pyrazolo[1,5-a]pyridine-3-carboxylate]
IC50 (recombinant WT HIV-1 RT; [3]): > 1000 µM

CCOC(=O)c1cnn2cccc(C#CCCO)c12 [compound 25, Ethyl 4-(4-Hydroxybut-1-yn-1-yl)pyrazolo[1,5-a]pyridine-3-carboxylate]
IC50 (recombinant WT HIV-1 RT; [3]): > 1000 µM

CCOC(=O)c1cnn2cccc(C#CCCCCCO)c12 [compound 26, Ethyl 4-(7-Hydroxyhept-1-yn-1-yl)pyrazolo[1,5-a]pyridine-3-carboxylate]
fold improvement on parent compound B-1 (recombinant WT HIV-1 RT): > 20 fold | IC50 (recombinant WT HIV-1 RT; [3]): 24 ± 6 µM | Ligand efficiency (LE) (recombinant WT HIV-1 RT): 0.30 kcal/mol/HA | IC50 [1]: 35 ± 7 µM | Kd (His-tagged HIV-1 RT WT): 173 ± 9 µM | Kd [2]: 233 ± 22 µM

CCCC#Cc1cccn2ncc(C(=O)OCC)c12 [compound 28, Ethyl 4-(pent-1-yn-1-yl)pyrazolo[1,5-a]pyridine-3-carboxylate]
fold improvement on parent compound B-1 (recombinant WT HIV-1 RT): > 20 fold | IC50 (recombinant WT HIV-1 RT; [3]): 53 ± 4 µM | Ligand efficiency (LE) (recombinant WT HIV-1 RT): 0.32 kcal/mol/HA | IC50 [1]: 105 ± 6 µM | Kd (His-tagged HIV-1 RT WT): 275 ± 9 µM

C#Cc1cccn2ncc(C(=O)OCC)c12 [compound 29, Ethyl 4-ethynylpyrazolo[1,5-a]pyridine-3-carboxylate]
fold improvement on parent compound B-1 (recombinant WT HIV-1 RT): > 20 fold | IC50 (recombinant WT HIV-1 RT; [3]): 27 ± 26 µM | Ligand efficiency (LE) (recombinant WT HIV-1 RT): 0.40 kcal/mol/HA | IC50 [1]: 43 ± 14 µM | Kd (His-tagged HIV-1 RT WT): 395 ± 35 µM
